From patent publication US7112570B2, “GPE analogs” (Neuren Pharmaceuticals, Ltd., priority 2000, dated 2006)
Ends that are not written are not given here. 3H = tritium label

Key:
[1] = tested on: hypoxic-ischemic injury, hippocampal CA1/2 neurons; experiment: Neuronal survival after hypoxic-ischemic injury, GPE administered peripherally; type: in vivo; settings: rat, GPE intraperitoneally 2 hours after hypoxia, sacrificed 7 days after injury, FIG. 4
Experimental: This experiment involved treating rats with a control vehicle or GPE administered peripherally 2 hours after a focal CNS injury. […] The degree and length of hypoxia, the ambient temperature and humidity were defmed to standardize the degree of damage. The neuronal death is restricted to the side of the carotid ligation and is primarily in the hippocampus, dentate gyrus, striatum and lateral cortex of the ligated hemisphere. There is no neuronal loss in the contralateral hemisphere.
Specifically forty-nine 50–60 day old adult Wistar rats (280–310 g) were prepared under halothane/O2 anaesthesia. The right side carotid artery was ligated. The rats were allowed to recover for 1 hour and were then placed in an incubator with humidity 90±5% and temperature 31±0.5° C. for 1 hour before hypoxia. Oxygen concentration was reduced and maintained at 6±0.2% 02 for 10 minutes. […]
The rats were transcardially perfised with 0.9% saline followed by 4% paraformaldehyde, and the brains were removed and embedded in paraffin. […] Only cells with a morphology like live neurons were counted, while dead neurons or cells with morphology like glia were not included. […]
A coronal section (A-P 4.5 mm) was used for analysis of the hippocampus. All surviving neurons in the hippocampal CA1/2 region of the injured hemisphere were counted. Data were analysed with paired t-test and presented as mean±sem (standard error of the mean).

[2] = Tissue distribution / brain accumulation of tritiated GPE after cardiac, iv, ip or icv administration; settings: rat
Experimental: (§1) Tritiated GPE (Gly-[^3H]Pro-Glu, 1.6 ml, specific activity 50–60 Ci/mmol) obtained from Sibtech, Inc., USA was used in these experiments.
(§2) Adult Wistar rats (300 g) were prepared under halothane/O2 anaesthesia. The rats were randomly assigned to one of four groups: tritiated GPE, saline+0.1% BSA, tritiated GPE+non-tritiated GPE or tritiated proline. Rats in the tritiated GPE, tritiated proline and control groups were sacrificed at 30 min, 1 hr or 6 hrs after administration. Rats co-administered with both tritiated and non- tritiated GPE were sacrificed at 10 minutes after administration. For all groups, tissue was homogenized in Soluene® (a tissue solubilizer; Packard Bioscience Company, Meriden Conn.) and counted in a β counter.
(§3) Rats were injected with 10 million counts of tritiated GPE in 500 μl total (made up with 0.1% BSA in saline). Animals were sacrificed at 30 minutes, 1, 3 or 6 hrs. Tissue was homogenized in Soluene® and counted in a β counter.
(§4) Adult Wistar rats (300 g) were prepared under halothane/O2 anaesthesia. A guide cannula was placed on the dura 7.5 mm anterior from stereotaxic zero and 1.5 mm from midline on the right. One million counts of GPE and 600 μl of non-tritiated GPE were injected in 8 μl total volume (made up with 0.1% BSA in saline). Rats were sacrificed 30 minutes after administration. Tissue was homogenized in Soluene® and counted in a β counter.
(§5) Tritiated GPE, tritiated GPE+non-tritiated GPE, tritiated proline (Amersham) or tritiated proline+non-tritiated proline in vehicle (0.1M citrate buffer [pH6], diluted 10 times in 0.1% bovine serum albumin in 0.1M phosphate buffered saline [PBS] [pH7.3]) were then given by different routes of administration to injured and non-injured rats according to the following study design:
(§6) Cardiac administration was performed using a syringe. The syringe needle was placed into the left ventricle and one of the above four solutions was given.
(§7) IV administration was carried out by injecting one of the four solutions into the tail vein.
(§8) IP administration was performed by injecting one of the four solutions into the peritoneal cavity.
(§9) ICV administration was carried out according to the following procedure. The rats were lightly anaesthetized again using 0.15 ml Saffan™ (Pitman-Moore Ltd, NZ). The infusion of one of the four solutions was made into the right lateral ventricle guided by a metal cap fitted over the rat head using a modified technique originally described by Jirikowski (J Neuroscience Methods, 42: 115–118, 1992), in order to ensure correct placement of the infusion needle. One of the four solutions was administered in a single dose.
(§10) The rats were sacrificed using pentobarbital 10, 60 or 360 minutes after administration of either tritiated GPE or tritiated proline. […] Counts/minute/mg were made in the following tissues: kidney, blood, adrenal glands, liver, lung, testicle, heart, muscle, spinal cord and brain. HPLC was used in order to check that the particles counted were either tritiated GPE or tritiated proline.

[3] = rat, in vivo
Experimental: as §1, §2, §3, §4, §5, §6, §7, §8, §9, §10

[4] = tested on: ^3H-Me-GPE binding sites in the rat brain; experiment: ^3H-Me-GPE binding autoradiography on rat tissue sections; settings: excess (10 μM) of competitor
Experimental: After tritiation the reaction mixture was diluted in ammonium acetate buffer (0.05M, pH 5.5 with 20% v/v methanol, 10 ml) and purified using Accell CM- and QMA+Sep-Paks (Waters, Milford, Mass., USA) in series. After washing with the ammonium acetate buffer to remove reagents and byproducts (tritiated water and tritiated methanol), the CM- and QMA+cartridges were uncoupled and the ^3H-Me-GPE was eluted from the QMA cartridge with ammonium bicarbonate (0.3M, 6 ml). The eluted material was lyophilized twice to remove the bulk of the ammonium bicarbonate, dissolved in ethanol-water (1:19, 20 μl ) and aliquots stored at −70° C.
The following experimental protocol followed guidelines approved by the University of Auckland Animal Ethics Committee. Adult male Wistar rats were killed by decapitation and tissues immediately removed and stored at −80° C. Coronal sections (16 μm) were cut on a cryostat and mounted on gelatin-coated slides. Normal adult human postmortem brain (n=4) tissue was cut and mounted in a similar manner. […]

## Gly-Pro-Glu [GPE]
[1]
  neuronal survival in the hippocampus after an hypoxic-ischemic injury: increases neuronal survival
[2]; ICV administration
  uptake in the brain of rats with an hypoxic-ischemic brain injury: selectively taken up on the injured side of the brain
[2]; cardiac administration, supported by ICV administration
  displacement when tritiated and non-tritiated GPE were administered together: the only displacement of GPE occurred in the brain
[2]; including in the absence of neural insult
  ability to pass through the blood-brain-barrier: pass through the blood-brain-barrier
[2]; ip administration
  amount in the brain compared to the corresponding time-points after iv and cardiac injection: increased

## Gly-[^3H]Pro-Glu (Gly-Pro(3H)-Glu; UniProt P05019 49-51, looked up, fragment) [tritiated GPE]
[3]
  amount in the brain relative to the blood: increases over time
  time-point at which there was the most tritiated GPE in the brain: 60 min

## N-methyl-GPE
[4]
  blockade of ^3H-Me-GPE binding in the CA1-2 region: blocked
